Values quoted from earlier work, collected in patent US20200221707A1, “Sanitizing Compositions and Methods for Making and Using Same” (priority 2017, published 2020).

Key:
[1] = tested on: Gram-negative bacteria and fungi
most bacteria = settings: in <30 seconds

Row | SMILES | amount active against Gram-positive bacteria (Gram-positive bacteria) | amount effective against Gram-negative bacteria and fungi [1] | bacteria destroyed (most bacteria) [%]
1 | [H]/N=C(\N/C(=N/[H])NCCCCCCNC(=N)NC(=N)Nc1ccc(Cl)cc1)Nc1ccc(Cl)cc1 [Chlorhexidine] | at least 1 ppm | 10-80 ppm | 
2 | CC(C)O [Isopropyl alcohol] |  |  | > 99.99
